Experimental data: ChEMBL document CHEMBL1201862, “PubChem BioAssay data set” (2004)
“And” between values parts separate entries of the source, which are not always exact repeats. Equal values may be shown once.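 Cultured in 96-well plates, cells were exposed to test compound for 48 hours across five concentrations. GI50 = concentration required for 50% inhibition of growth.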 The source made the active and inactive calls. No stated cut-off is given here; in the data, active = GI50 up to about 1.1 µM and inactive = higher.

Key:
Assay in all cases: NCI-60 cell line screen, 48 h
[1] = tested on: MDA-MB-435
[2] = tested on: SN12C
[3] = tested on: EKVX
[4] = tested on: HCT-116
[5] = tested on: HL-60
[6] = tested on: UACC-257
[7] = tested on: SR
[8] = tested on: T47D
[9] = tested on: SF-295
[10] = tested on: KM12
[11] = tested on: M14
[12] = tested on: ACHN
[13] = tested on: TK-10
[14] = tested on: NCI-H460
[15] = tested on: CCRF-CEM
[16] = tested on: OVCAR-3
[17] = tested on: UO-31
[18] = tested on: NCI-H522
[19] = tested on: LOX IMVI
[20] = tested on: 786-0

Measured: GI50

CN(C)C(c1ccccc1)C1COC2Cc3ccccc3C1O2 (stereo not drawn)
inactive: [1] > 100 µM | [2] > 100 µM | [3] > 100 µM | [4] 98.2 µM and 86.9 µM | [5] 65 µM and 46.8 µM | [6] > 100 µM | [7] > 100 µM | [8] > 100 µM | [9] > 100 µM | [10] > 100 µM | [11] > 100 µM | [12] > 100 µM | [13] > 100 µM | [14] > 100 µM | [15] 79.3 µM | [16] 47.1 µM and 64 µM | [17] > 100 µM | [18] > 100 µM | [19] 62.2 µM and 64.4 µM | [20] > 100 µM

O=c1ccn(CC2(CO)CCC2)c(=O)[nH]1
inactive: [1] > 100 µM | [2] > 100 µM | [3] > 100 µM | [4] > 100 µM | [5] > 100 µM | [6] > 100 µM | [7] > 100 µM | [8] > 100 µM | [9] > 100 µM | [10] > 100 µM | [12] > 100 µM | [13] > 100 µM | [14] > 100 µM | [15] > 100 µM | [16] > 100 µM | [17] > 100 µM | [18] > 100 µM | [19] > 100 µM | [20] > 100 µM

Cc1ccc(-c2cc(-c3ccc(Cl)cc3)nc(/N=C3\C(=O)N(CN4CCOCC4)c4ccc(Cl)cc43)n2)cc1
inactive: [1] 24.4 µM | [2] 24.7 µM | [3] 15.2 µM | [4] 17.4 µM | [5] 11.6 µM | [6] 33.3 µM | [7] 9.38 µM | [8] 17.3 µM | [9] 35.7 µM | [10] 22.2 µM | [11] 26.4 µM | [12] 19.9 µM | [13] 26.4 µM | [14] 20.9 µM | [15] 20.4 µM | [16] 33.3 µM | [17] 24.9 µM | [18] 15.4 µM | [19] 31.8 µM | [20] 22 µM

CSc1c(C#N)c(O)n(-c2ccc(C)cc2)c(=O)c1C(C)=O
inactive: [1] > 100 µM | [2] > 100 µM | [3] > 100 µM | [4] > 100 µM | [5] > 100 µM | [6] > 100 µM | [7] > 100 µM | [8] > 100 µM | [10] > 100 µM | [11] 94.6 µM | [13] > 100 µM | [14] > 100 µM | [15] > 100 µM | [16] > 100 µM | [17] 88.7 µM | [18] 57.5 µM | [19] > 100 µM | [20] > 100 µM

Oc1cc2c3c(c1)CCCN3CCC2
inactive: [1] > 10 µM | [2] > 10 µM | [3] > 10 µM | [4] > 10 µM | [5] > 10 µM | [6] > 10 µM | [7] > 10 µM | [8] > 10 µM | [9] > 10 µM | [10] > 10 µM | [11] > 10 µM | [12] > 10 µM | [13] > 10 µM | [14] > 10 µM | [15] > 10 µM | [16] > 10 µM | [18] > 10 µM | [19] > 10 µM | [20] > 10 µM

COc1ccc(-n2c(C)nc3ccc(NC4OCC(O)C(O)C4O)cc3c2=O)cc1 (stereo not drawn)
inactive: [1] > 100 µM and 82.8 µM | [2] 38.1 µM and 27.2 µM | [3] > 100 µM | [4] 18.6 µM and 19.4 µM | [5] 26.4 µM and 28.9 µM | [6] > 100 µM | [7] 31.1 µM and 26.1 µM | [8] > 100 µM | [9] > 100 µM | [12] 61.4 µM and 36.6 µM | [13] > 100 µM | [14] 72.9 µM and 40.5 µM | [16] > 100 µM | [17] > 100 µM | [18] 24.6 µM and 22.3 µM | [19] 18.8 µM and 22.5 µM | [20] 34 µM and 30.5 µM

CN1CCN(C2=C(Cl)C3(OCCS3)C(F)(F)C2(F)F)CC1 (stereo not drawn)
inactive: [1] > 100 µM | [2] > 100 µM | [3] > 100 µM | [4] > 100 µM | [5] 64.4 µM | [6] 27.2 µM | [7] > 100 µM | [8] 9.35 µM | [9] 48.2 µM | [11] > 100 µM | [12] > 100 µM | [13] > 100 µM | [15] > 100 µM | [16] 57 µM | [17] 55 µM | [18] > 100 µM | [19] 56 µM | [20] > 100 µM

CC(C)(O)C1CC[C@]2(C)CC[C@]3(C)[C@H](CC[C@@H]4[C@@]5(C)CC[C@H](O)C(C)(C)[C@@H]5CC[C@]43C)[C@@H]12 (stereo partly drawn)
inactive: [1] 34.1 µM | [2] 81.3 µM | [3] 23.2 µM | [4] 21 µM | [5] > 100 µM | [6] 15.4 µM | [7] 30.5 µM | [8] 23.1 µM | [9] 25.4 µM | [10] 34.4 µM | [11] 36.3 µM | [12] 22.1 µM | [13] 27.5 µM | [14] 34.8 µM | [15] 74.1 µM | [16] 24.1 µM | [17] 58.2 µM | [18] 29.1 µM | [20] 25.2 µM

O=Cc1ccc(-c2cccs2)s1
inactive: [1] 66.2 µM | [2] > 100 µM | [3] 79.4 µM | [4] 39.2 µM | [5] 49.3 µM | [6] 6.62 µM | [7] 77.4 µM | [8] 46.9 µM | [9] > 100 µM | [10] > 100 µM | [11] > 100 µM | [12] > 100 µM | [13] 3.88 µM | [14] 33.5 µM | [15] 81.8 µM | [16] 12.4 µM | [17] 64 µM | [18] > 100 µM | [19] > 91.8 µM | [20] > 100 µM

O=C(NC1=C(Cl)C(=O)c2ccccc2C1=O)c1ccccc1
inactive: [1] 18.9 µM | [2] 38.1 µM | [3] > 100 µM | [4] 17.3 µM | [5] 34.8 µM | [6] > 10 µM | [7] 38.4 µM | [8] 22.1 µM | [9] 36 µM | [10] 32.1 µM | [11] 50.8 µM | [12] 20.8 µM | [13] 23 µM | [14] 40.3 µM | [15] 30.9 µM | [16] 19.1 µM | [18] 23.9 µM | [20] 45.4 µM
